The results in this text go back to patent publication US9034895B2, “Composition and methods for treating glioblastoma” (University of Washington Through its Center for …, priority 2010, dated 2015).

In one data set the target is T1, CB1 (Mus musculus, UniProt P47746).
T1 construct: plasmids containing full coding region of mouse CB1 and CB2; expressed in transfected cells
Description: Radioligand competition binding, [3H]-CP55940, CB1-expressing HEK293 membranes. As to the method: Stable CB1 and CB2 expressing HEK293 cell lines were generated using plasmids containing full coding region of mouse CB1 and CB2.
Fragments were amplified from total RNA of cell lines by reverse transcriptase-polymerase chain reaction (RT-PCR). Sequence was confirmed and the fragment was cloned into the EcoRI site of the pIRES2-eGFP-express vector. Cells were grown to approximately 80% confluence in 10 cm cell culture dishes, transfected with the cDNA pIRES-eGFP-vector containing the murine CB1 or CB2 receptor using LipofectAMINE™ 2000 reagent in the serum-free media Opti-MEM 1 according to the manufacturer's description. Cells were subject to FACS sorting 48 h after transfection and single cell sorted based on dsRed expression into 96-well plates. Of the dsRed expressing positive clones, 3 were validated for CB1 and CB2 protein expression by radioligand binding analysis (methods discussed below).
Cells were grown to 90% confluence, rinsed twice with 1×PBS and stored at −80° C. until further use. To prepare crude cellular membrane fractions, dishes were removed from −80° C. and thawed at room temperature for 5 min. Once thawed, cells were lysed with ice-cold homogenization buffer (50 mM Tris, 1 mM EDTA, 3 mM MgCl2) and gently scraped from the dish. Total cell lysates from 3-5 dishes were collected on ice in 3 ml of ice-cold homogenization buffer. Cells were homogenized at 6,500 rpm (PRO Scientific, Oxford, Conn.) twice for 10 sec and centrifuged at 11,500 rpm for 20 min at 4° C. Supernatants were discarded and cell pellets were resuspended in homogenization buffer and triturated 10 times in ice-cold homogenization buffer. Crude cellular membrane homogenates were stored at −80° C. until further use. On the day of experiments, frozen homogenates were thawed at room temperature, gently triturated 10 times and subsequently dounce homogenized in a 7 ml glass tissue grinder (Wheaton Science Products, Millville, N.J.) by 5 strokes while on ice. […]

Another data set concerns DBT tumors. As to the kind of experiment: Lymphocyte and brain macrophage invasion of DBT tumors implanted in mouse brain. The class given is in vivo, mice (BALB/c). To be noted: daily i.p. (40 mg/Kg per FIG. 7), tumors implanted three weeks in mouse brain. How it is done: Effect of JWH-451 on the immune cell invasion of syngenic mouse model of astrocytomas tumors (mouse astrocytoma cell implanted into the brain of wild type mice hosts with intact immune systems) was measured. Briefly, mice (BALB/c, 8 week-old, male, Charles River) were used for this study and housed under specific-pathogen-free conditions for at least one week prior to surgery. Twenty-four hours before surgery, 5×10^6 DBT cells were harvested in 10 ml of DMEM supplemented with 10% heat-inactivated FBS, 10 U/ml penicillin and 10 μg/ml streptomycin and seeded in T75 cm^2 cell culture flasks (one flask per mouse). Just before surgery, cells from one flask were detached with trypsin-EDTA, recovered in DMEM supplemented with 10% heat-inactivated FBS, centrifuged/rinsed twice with MEM (serum free) and resuspended at 10^6 cells/u1 of ice-cold MEM (ready for injection). Mice were anesthetized with ketamine/xylazine (given […] i.p., 130 mg/kg ketamine/8.8 mg/kg xylazine) and placed in a stereotactic instrument (David Kopf Instruments, CA) on an isothermal pad (Deltaphase®, Braintree Scientific, Inc, Braintree, Mass.). After midline incision of the scalp, a 25-G needle was used to perform a craniostomy at 2 mm cranial from bregma and 1.5 mm left lateral. […]

In data set [1] the test system is cardiac and motorneuron progenitors. As to the kind of experiment: Toxic profile in progenitor cells. The class given is cell-based. The settings on record: compared with astrocytoma cell lines. How it is done:
(§1) JWH-451 was tested for toxicity in cells expressing GPR124.

Data set [2] concerns endothelial cell line bEnd.3. Description: Toxic profile in endothelial cell line. The class given is cell-based. How it is done:
as §1

T1 sequence (P47746 whole entry): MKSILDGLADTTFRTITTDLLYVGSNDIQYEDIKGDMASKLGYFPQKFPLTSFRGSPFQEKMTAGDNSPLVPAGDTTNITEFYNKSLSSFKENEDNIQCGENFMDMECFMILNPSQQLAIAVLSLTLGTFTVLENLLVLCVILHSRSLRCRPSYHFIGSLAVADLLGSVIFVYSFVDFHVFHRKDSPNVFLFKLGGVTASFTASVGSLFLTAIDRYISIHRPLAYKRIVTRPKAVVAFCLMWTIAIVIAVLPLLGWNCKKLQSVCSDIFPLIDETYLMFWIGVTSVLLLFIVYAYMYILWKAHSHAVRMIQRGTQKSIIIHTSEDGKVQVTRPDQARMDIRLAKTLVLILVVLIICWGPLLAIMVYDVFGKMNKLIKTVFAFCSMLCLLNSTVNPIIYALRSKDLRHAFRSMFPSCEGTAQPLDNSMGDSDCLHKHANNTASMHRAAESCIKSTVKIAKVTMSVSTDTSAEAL

`CCn1c(C)c(C(=O)c2ccc(C)c3ccccc23)c2ccccc21` [JWH-451, 1-Ethyl-2-methyl-3-(4-methyl-1-napthoyl)indole]: on CB1 (FIG. 2 (CB1 not shown)), the “competition for [3H]-CP55940 binding at CB1” value was “does not”. At CB1 (relative to WIN55212-2), the “lower affinity at CB1 receptors than WIN55212-2” value is reported as 100 fold. In the data set on DBT tumors, the “brain macrophage density / number invading DBT tumors” value is recorded as “two fold increase” and the “lymphocyte density / number invading DBT tumors” value is listed as “two fold increase”. Moreover, the “toxic effect on cardiac and motorneuron progenitors” value in data set [1] was “much less toxic effect”. Besides, the “viability of endothelial cell line bEnd.3” value in data set [2] is “did not affect the viability”.
